Assay results reported in US20080089957A1, “Monocotyledon plant indications extract compositions, method of preparation and pharmaceutical compositions containing them” (priority 2006, published 2008).
Counter-ions that a name gives are not always drawn.

These molecules were tested against xanthine oxidase (UniProt P80457) (assay: Xanthine oxidase inhibitory activity assay, spectrophotometric at 295 nm). Conditions: Table 3, triplicate; read-out: IC50 ± SEM.
Format: biochemical
Protocol: A reaction mixture containing 200 mM sodium pyrophosphate buffer (pH 7.5), 100 mM xanthine and 0.05 unit xanthine oxidase was prepared. […] All determinations were performed in triplicate and samples were tested further to ascertain the corresponding IC50 values.

| IC50 | SMILES |
| --- | --- |
| > 200 µM | COc1nc(N)nc2nc[nH]c12 [6-O-Methylguanine] |
| > 200 µM | Cc1ccc2[nH]cnc2c1 [5-Methylbenzimidazole] |

Second part, the molecule before the results:

| SMILES | IC50 |
| --- | --- |
| Nc1nc(Cl)c2nc[nH]c2n1 [2-Amino-6-chloropurine] | > 200 µM |
| Nc1ncc2[nH]cnc2n1 [2-Aminopurine] | > 200 µM |
| Nc1nc(N)c2[nH]cnc2n1 [2,6-Diaminopurine] | > 200 µM |
| Cc1cc2nc[nH]c2cc1C [5,6-Dimethylbenzimidazole] | > 200 µM |

Same assay, conditions: unit inferred; read-out: IC50 on xanthine oxidase

| IC50 | SMILES |
| --- | --- |
| 92.42 ± 0.62 µM | Nc1nc2nc[nH]c2c(=S)[nH]1 [6-Thioguanine] |
| 86.84 ± 0.51 µM | O=[N+]([O-])c1ccc2[nH]cnc2c1 [5-Nitrobenzimidazole nitrate salt] |
| 30.26 ± 0.23 µM | Nc1ncnc2[nH]ncc12 [4-Aminopyrazolo[3,4-d]pyrimidine] |

What follows are molecules tested on phosphodiesterases (assay: Phosphodiesterase inhibitory activity assay, bis(p-nitrophenyl phosphate), 405 nm). Conditions: not given.
Format: biochemical
Protocol: The inhibitory effect on phosphodiesterases was measured spectrophotometrically at 405 nm. A reaction mixture containing 300 μl of 100 mM Tris buffer (pH 8.9), 600 μl of 1 mM Bis(p-nitrophenyl phosphate), 100 μl of sample and 100 μl of enzyme was used for analysis. The absorption increments at 405 nm indicated formation of […] at room temperature, and the initial velocity was calculated. The inhibitory activity of phosphodiesterases was assessed as % inhibition=(1−β/α)×100, where α is the change in absorbance per minute without the sample (A blank with enzyme−A blank without enzyme), and β is the change in absorbance per minute with the sample (A test with enzyme−A test without enzyme).

| phosphodiesterase inhibitory activity | SMILES |
| --- | --- |
| phosphodiesterase inhibitor | O=C(O)/C=C(\CC(=O)O)C(=O)O [trans-aconitic acid] |
